Experimental data from patent US20030199692A1, “Propanoic acid derivatives that inhibit the binding of integrins to their receptors” (priority 1999, published 2003).
pIC50: −log10 of the molar value.

biological target: T1, α4β1 integrin (Homo sapiens, UniProt P05556+P13612); assay: Inhibition of adhesion of calcein AM-labeled Ramos cells to CS1 (fibronectin) peptide-conjugated ovalbumin; assay type: cell-based; conditions: Table 1; Ramos cell adhesion to CS1-conjugated ovalbumin, 30 minutes at 37° C.
T1 construct: endogenous in cells; host or cells: Ramos cells
In short: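 Calcein AM-labeled Ramos cells (2.5×10^5/well) added with or without compound to plates coated with CS1 peptide-ovalbumin conjugate in TBS containing 1 mM each MgCl2, CaCl2, MnCl2; 30 min at 37° C. Adherent cells lysed and quantified fluorometrically after washes; IC50 as dose for 50% inhibition, or percent inhibition at 100 μM.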

T1 sequence (P13612 34-1032): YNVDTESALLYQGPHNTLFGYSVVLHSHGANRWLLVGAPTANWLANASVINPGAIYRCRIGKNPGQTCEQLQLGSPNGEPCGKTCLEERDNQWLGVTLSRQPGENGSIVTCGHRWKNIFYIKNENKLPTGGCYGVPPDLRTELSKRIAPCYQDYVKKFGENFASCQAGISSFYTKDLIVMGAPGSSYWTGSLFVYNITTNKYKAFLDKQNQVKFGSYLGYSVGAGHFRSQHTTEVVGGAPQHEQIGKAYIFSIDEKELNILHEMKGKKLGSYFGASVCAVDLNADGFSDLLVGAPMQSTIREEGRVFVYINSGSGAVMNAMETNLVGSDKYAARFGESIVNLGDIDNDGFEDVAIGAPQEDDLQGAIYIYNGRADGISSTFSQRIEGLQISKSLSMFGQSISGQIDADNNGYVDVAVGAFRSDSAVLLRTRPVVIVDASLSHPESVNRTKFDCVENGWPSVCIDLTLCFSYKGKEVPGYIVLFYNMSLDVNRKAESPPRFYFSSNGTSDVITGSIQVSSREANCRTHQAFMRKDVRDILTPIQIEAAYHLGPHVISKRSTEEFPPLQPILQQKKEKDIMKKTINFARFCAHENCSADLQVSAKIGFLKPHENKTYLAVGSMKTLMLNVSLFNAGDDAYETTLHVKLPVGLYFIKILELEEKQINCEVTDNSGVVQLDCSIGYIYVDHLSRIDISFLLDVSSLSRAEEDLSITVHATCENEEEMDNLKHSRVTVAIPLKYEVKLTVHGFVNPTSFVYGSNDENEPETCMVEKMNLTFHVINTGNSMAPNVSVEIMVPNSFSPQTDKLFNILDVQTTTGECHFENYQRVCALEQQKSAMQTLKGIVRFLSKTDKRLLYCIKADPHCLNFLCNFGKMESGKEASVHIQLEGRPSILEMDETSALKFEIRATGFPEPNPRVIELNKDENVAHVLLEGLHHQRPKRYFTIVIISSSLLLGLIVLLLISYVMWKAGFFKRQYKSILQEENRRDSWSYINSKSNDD
T1 sequence (P05556 21-798): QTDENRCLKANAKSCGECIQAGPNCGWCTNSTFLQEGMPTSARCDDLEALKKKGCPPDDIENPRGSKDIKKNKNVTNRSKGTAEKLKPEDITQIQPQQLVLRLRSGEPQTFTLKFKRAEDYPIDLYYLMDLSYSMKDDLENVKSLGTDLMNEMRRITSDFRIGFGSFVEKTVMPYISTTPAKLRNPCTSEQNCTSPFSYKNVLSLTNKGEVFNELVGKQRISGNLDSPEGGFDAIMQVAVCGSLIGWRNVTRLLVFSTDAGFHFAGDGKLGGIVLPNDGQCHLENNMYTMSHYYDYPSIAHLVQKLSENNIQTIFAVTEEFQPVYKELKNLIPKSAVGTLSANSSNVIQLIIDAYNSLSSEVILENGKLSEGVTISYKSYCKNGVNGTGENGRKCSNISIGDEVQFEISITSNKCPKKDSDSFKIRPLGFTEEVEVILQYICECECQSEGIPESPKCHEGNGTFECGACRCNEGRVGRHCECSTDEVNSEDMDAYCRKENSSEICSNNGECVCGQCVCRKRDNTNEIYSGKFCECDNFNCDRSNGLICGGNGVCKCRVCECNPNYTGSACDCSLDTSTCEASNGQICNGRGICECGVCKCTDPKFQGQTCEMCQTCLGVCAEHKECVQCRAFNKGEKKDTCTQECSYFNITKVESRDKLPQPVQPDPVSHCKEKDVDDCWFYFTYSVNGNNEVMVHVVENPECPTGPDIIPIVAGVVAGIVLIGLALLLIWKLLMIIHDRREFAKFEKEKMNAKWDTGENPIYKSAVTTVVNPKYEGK

Compound	pIC50
CCCCC(C(=O)N[C@@H](CC(=O)O)c1ccc2c(c1)OCO2)n1cc(C)cc(Cc2ccc(F)cc2)c1=O (mixture of isomers) [Compound 17, (3S)-3-(1,3-benzodioxol-5-yl)-3-((2R,S)-2-(3-(4-fluorobenzyl)-5-methyl-2-oxo-1(2H)-pyridinyl)hexanoylamino)propanoic acid]	7.22
CCCCC(C(=O)N[C@@H](CC(=O)O)c1ccc2c(c1)OCO2)n1cc(C)cc(Cc2cccc(Cl)c2)c1=O (mixture of isomers) [Compound 19, (3S)-3-(1,3-benzodioxol-5-yl)-3-((2R,S)-2-(3-(3-chlorobenzyl)-5-methyl-2-oxo-1(2H)-pyridinyl)hexanoylamino)propanoic acid]	8.22
CCCCC(C(=O)N[C@@H](CC(=O)O)c1ccc(F)cc1)n1cc(C)cc(Cc2ccccc2)c1=O (mixture of isomers) [Compound 14, (3S)-3-((2R,S)-2-(3-benzyl-5-methyl-2-oxo-1(2H)-pyridinyl)hexanoylamino)-3-(4-fluorophenyl)propanoic acid]	6.82
CCCCC(C(=O)N[C@@H](CC(=O)O)c1ccc2c(c1)OCO2)n1cc(C)cc(Cc2ccc(C)cc2)c1=O (mixture of isomers) [Compound 16, (3S)-3-(1,3-benzodioxol-5-yl)-3-((2R,S)-2-(3-(4-methylbenzyl)-5-methyl-2-oxo-1(2H)-pyridinyl)hexanoylamino)propanoic acid]	7.46

same assay, conditions: Table 3; Ramos cell adhesion to CS1-conjugated ovalbumin, 30 minutes at 37° C.

Compound	pIC50
CCCCC(C(=O)N[C@@H](CC(=O)O)c1ccc2c(c1)OCO2)n1c(=O)n(Cc2ccccc2)c2ccccc21 (stereo partly drawn) [(3S)-3-(1,3-benzodioxol-5-yl)-3-({2-[2-oxo-3-(phenylmethyl)-2,3-dihydro-1H-benzimidazol-1-yl]hexanoyl}amino)propanoic acid]	7.15
CCCC[C@@H](C(=O)N[C@@H](CC(=O)O)c1ccc2c(c1)OCO2)N1CC(=O)N(Cc2cccs2)c2ccccc2C1=O [(3S)-3-(1,3-benzodioxol-5-yl)-3-({(2S)-2-[2,5-dioxo-1-(2-thiophenylmethyl)-1,2,3,5-tetrahydro-4H-1,4-benzodiazepin-4-yl]hexanoyl}amino)propanoic acid]	5.82

same assay, conditions: Table 4; Ramos cell adhesion to CS1-conjugated ovalbumin, 30 minutes at 37° C.

Compound	pIC50
CCCCC(C(=O)N[C@@H](CC(=O)O)c1ccccc1)n1cc(C)cc(Cc2cccc3ccccc23)c1=O (stereo partly drawn) [(3S)-3-({2-[5-methyl-3-(1-naphthalenylmethyl)-2-oxo-1(2H)-pyridinyl]hexanoyl}amino)-3-phenylpropanoic acid]	6.46
CCCCC(C(=O)N[C@@H](CC(=O)O)c1ccc(OC)c(C)c1)n1cc(C)cc(Cc2ccccc2)c1=O (stereo partly drawn) [(3S)-3-{[2-(3-benzyl-5-methyl-2-oxopyridin-1(2H)-yl)hexanoyl]amino}-3-(4-methoxy-3-methylphenyl)propanoic acid]	8.05
CCCCC(C(=O)N[C@@H](CC(=O)O)c1cccc(N(CC)CC)c1)n1cc(C)cc(Cc2ccccc2)c1=O (stereo partly drawn) [(3S)-3-[3-(diethylamino)phenyl]-3-({2-[5-methyl-2-oxo-3-{phenylmethyl)-1(2H)-pyridinyl]hexanoyl}amino)propanoic acid]	8.00
CCCCC(C(=O)N[C@@H](CC(=O)O)c1cccc(CC(C)C)c1)n1cc(C)cc(Cc2ccccc2)c1=O (stereo partly drawn) [(3S)-3-({2-[5-methyl-2-oxo-3-(phenylmethyl)-1(2H)-pyridinyl]hexanoyl}amino)-3-[3-(2-methylpropyl)phenyl]propanoic acid]	8.00
CCCCC(C(=O)N[C@@H](CC(=O)O)c1cc(F)cc(F)c1)n1cc(C)cc(Cc2ccccc2)c1=O (stereo partly drawn) [(3S)-3-{[2-(3-benzyl-5-methyl-2-oxopyridin-1(2H)-yl)hexanoyl]amino}-3-(3,5-difluorophenyl)propanoic acid]	7.60
CCCCC(C(=O)N[C@@H](CC(=O)O)c1ccc2c(c1)CCC2)n1cc(C)cc(Cc2ccccc2)c1=O (stereo partly drawn) [(3S)-3-(2,3-dihydro-1H-inden-5-yl)-3-({2-[5-methyl-2-oxo-3-(phenylmethyl)-1(2H)-pyridinyl]hexanoyl}amino)propanoic acid]	7.20
CCCCC(C(=O)N[C@@H](CC(=O)O)c1cc(C)ccc1C)n1cc(C)cc(Cc2ccccc2)c1=O (stereo partly drawn) [(3S)-3-{[2-(3-benzyl-5-methyl-2-oxopyridin-1(2H)-yl)hexanoyl]amino}-3-(2,5-dimethylphenyl)propanoic acid]	6.52
Cc1cc(C(C(=O)N[C@@H](CC(=O)O)c2cccc(OC(C)C)c2)c2ccccc2)c(=O)n(Cc2ccccc2)c1 (stereo partly drawn) [(3S)-3-{3-[(1-methylethyl)oxy]phenyl}-3-({2-[5-methyl-2-oxo-1-(phenylmethyl)-1,2-dihydro-3-pyridinyl]-2-phenylacetyl}amino)propanoic acid]	8.00
CCCCC(C(=O)N[C@@H](CC(=O)O)c1ccc2c(c1)OCO2)n1cccc(Cc2ccccc2)c1=O (stereo partly drawn) [(3S)-3-(1,3-benzodioxol-5-yl)-3-{[2-(3-benzyl-2-oxopyridin-1(2H)-yl)hexanoyl]amino}propanoic acid]	7.52
CCCC[C@@H](C(=O)N[C@@H](CC(=O)O)c1ccc2c(c1)OCO2)n1cc(C)c(O)c(Cc2ccccc2)c1=O [(3S)-3-(1,3-benzodioxol-5-yl)-3-{[(2S)-2-(3-benzyl-4-hydroxy-5-methyl-2-oxopyridin-1(2H)-yl)hexanoyl]amino}propanoic acid]	6.70
CCCCC(C(=O)N[C@@H](CC(=O)O)c1cccc(OCC)c1)n1cc(C)cc(Cc2ccccc2)c1=O (stereo partly drawn) [(3S)-3-{[2-(3-benzyl-5-methyl-2-oxopyridin-1(2H)-yl)hexanoyl]amino}-3-(3-ethoxyphenyl)propanoic acid]	7.46
CCCC[C@@H](C(=O)N[C@@H](CC(=O)O)c1cc(OC)cc(OC)c1)n1cc(C)cc(Cc2ccccc2)c1=O [(3S)-3-{[(2S)-2-(3-benzyl-5-methyl-2-oxopyridin-1(2H)-yl)hexanoyl]amino}-3-(3,5-dimethoxyphenyl)propanoic acid]	8.00
CCCCC(C(=O)N[C@@H](CC(=O)O)c1cccc(OC(F)(F)F)c1)n1cc(C)cc(Cc2ccccc2)c1=O (stereo partly drawn) [(3S)-3-{[2-(3-benzyl-5-methyl-2-oxopyridin-1(2H)-yl)hexanoyl]amino}-3-[3-(trifluoromethoxy)phenyl]propanoic acid]	7.40
CCCCC(C(=O)N[C@@H](CC(=O)O)c1cccc(OC(C)C)c1)n1cc(C)cc(Cc2ccccc2OCC)c1=O (stereo partly drawn) [(3S)-3-({2-[3-(2-ethoxybenzyl)-5-methyl-2-oxopyridin-1(2H)-yl]hexanoyl}amino)-3-(3-isopropoxyphenyl)propanoic acid]	7.72
CCCCC(C(=O)N[C@@H](C(=O)O)c1ccccc1)n1cc(C)cc(Cc2ccccc2)c1=O (stereo partly drawn) [(2R)-2-({2-[5-methyl-2-oxo-3-(phenylmethyl)-1(2H)-pyridinyl]hexanoyl}amino)-2-phenylethanoic acid]	< 5.00
CCCCC(C(=O)N[C@@H](CC(=O)O)c1cccc(OC(C)C)c1)n1ccc(CCc2ccccc2)cc1=O (stereo partly drawn) [(3S)-3-(3-isopropoxyphenyl)-3-({2-[2-oxo-4-(2-phenylethyl)pyridin-1(2H)-yl]hexanoyl}amino)propanoic acid]	7.02
CCCCC(C(=O)N[C@@H](CC(=O)O)c1cccc(OC(C)C)c1)n1cc(C)cc(Cc2ccccc2C)c1=O (stereo partly drawn) [(3S)-3-{3-[(1-methylethyl)oxy]phenyl}-3-({2-[5-methyl-3-[(2-methylphenyl)methyl]-2-oxo-1(2H)-pyridinyl]hexanoyl}amino)propanoic acid]	8.30
